Source: article PMC5218480 (PLoS ONE, 2017)

Test system: MV-4-11 cells
Assay: Gene expression microarray analysis (Affymetrix PrimeView) and GSEA
Type: cell-based, human
Set-up: RFU PODN (11730768_x_at) / Fold change /veh PODN (11730768_x_at) / RFU LINC00158 (11744669_a_at) / Fold change /veh LINC00158 (11744669_a_at) / RFU DUSP10 (11751237_a_at) / Fold change /veh DUSP10 (11751237_a_at) / RFU ID3 (11757404_x_at) / Fold change /veh ID3 (11757404_x_at) / RFU PLEKHG5 (11737974_s_at) / Fold change /veh PLEKHG5 (11737974_s_at) / RFU LRRC4B (11730491_at) / Fold change /veh LRRC4B (11730491_at) / RFU GIMAP4 (11747438_a_at) / Fold change /veh GIMAP4 (11747438_a_at) / RFU KRT8 (11758183_x_at) / Fold change /veh KRT8 (11758183_x_at) / RFU CNN1 (11734310_a_at) / Fold change /veh CNN1 (11734310_a_at) / RFU VPS37D (11726825_at) / Fold change /veh VPS37D (11726825_at) / RFU C10orf10 (11716522_x_at) / Fold change /veh C10orf10 (11716522_x_at) / RFU KIR2DL2 /// KIR2DL4 /// KIR2DL5A /// KIR2DL5B /// KIR2DS1 /// KIR2DS2 /// KIR2DS3 /// KIR2DS4 /// KIR3DL3 /// KIR3DL3 /// KIR3DS1 (11738374_at) / Fold change /veh KIR2DL2 /// KIR2DL4 /// KIR2DL5A /// KIR2DL5B /// KIR2DS1 /// KIR2DS2 /// KIR2DS3 /// KIR2DS4 /// KIR3DL3 /// KIR3DL3 /// KIR3DS1 (11738374_at) / RFU C1QL1 (11718748_at) / Fold change /veh C1QL1 (11718748_at) / RFU TMPRSS4 (11747572_a_at) / Fold change /veh TMPRSS4 (11747572_a_at) / RFU HAMP (11756126_x_at) / Fold change /veh HAMP (11756126_x_at) / RFU RNFT2 (11725882_a_at) / Fold change /veh RNFT2 (11725882_a_at) / RFU NR4A2 (11747474_a_at) / Fold change /veh NR4A2 (11747474_a_at) / RFU ABCC12 (11746883_a_at) / Fold change /veh ABCC12 (11746883_a_at) / RFU TMEM136 (11760407_x_at) / Fold change /veh TMEM136 (11760407_x_at) / RFU CLDN22 /// WWC2 (11732394_at) / Fold change /veh CLDN22 /// WWC2 (11732394_at) / RFU HLA-DPB1 (11760878_x_at) / Fold change /veh HLA-DPB1 (11760878_x_at) / RFU SPINT1 (11716480_a_at) / Fold change /veh SPINT1 (11716480_a_at) / RFU GAP43 (11754022_s_at) / Fold change /veh GAP43 (11754022_s_at) / RFU A4GNT (11735810_at) / Fold change /veh A4GNT (11735810_at) / RFU PRB3 (11715151_x_at) / Fold change /veh PRB3 (11715151_x_at) / RFU TUBB4B (11761932_at) / Fold change /veh TUBB4B (11761932_at) / RFU CAPN14 (11732068_a_at) / Fold change /veh CAPN14 (11732068_a_at) / RFU TMCC2 (11721928_a_at) / Fold change /veh TMCC2 (11721928_a_at) / RFU IRGQ (11745062_a_at) / Fold change /veh IRGQ (11745062_a_at) / RFU FAM174B (11720279_a_at) / Fold change /veh FAM174B (11720279_a_at) / RFU TMPRSS4 (11748680_a_at) / Fold change /veh TMPRSS4 (11748680_a_at) / RFU FAM212B (11763350_a_at) / Fold change /veh FAM212B (11763350_a_at) / RFU PLEKHG5 (11743358_a_at) / Fold change /veh PLEKHG5 (11743358_a_at) / RFU ZSCAN30 (11745921_a_at) / Fold change /veh ZSCAN30 (11745921_a_at) / RFU CMKLR1 (11741424_a_at) / Fold change /veh CMKLR1 (11741424_a_at) / RFU LOC101060620 /// MAPK8IP1 (11723275_at) / Fold change /veh LOC101060620 /// MAPK8IP1 (11723275_at) / RFU SPTSSB (11747773_x_at) / Fold change /veh SPTSSB (11747773_x_at) / RFU PRSS12 (11739890_at) / Fold change /veh PRSS12 (11739890_at) / RFU BIN1 (11741810_x_at) / Fold change /veh BIN1 (11741810_x_at) / RFU WNT11 (11732464_a_at) / Fold change /veh WNT11 (11732464_a_at) / RFU C10orf10 (11716521_a_at) / Fold change /veh C10orf10 (11716521_a_at) / RFU C5orf56 (11738089_at) / Fold change /veh C5orf56 (11738089_at) / RFU CYB561 (11721691_x_at) / Fold change /veh CYB561 (11721691_x_at) / RFU ANKRD19P (11752326_a_at) / Fold change /veh ANKRD19P (11752326_a_at) / RFU OR2T12 /// OR2T33 /// OR2T8 (11738714_s_at) / Fold change /veh OR2T12 /// OR2T33 /// OR2T8 (11738714_s_at) / RFU VCAN (11748164_a_at) / Fold change /veh VCAN (11748164_a_at) / RFU JSRP1 (11732532_at) / Fold change /veh JSRP1 (11732532_at) / RFU KRTAP10-11 (11738290_x_at) / Fold change /veh KRTAP10-11 (11738290_x_at) / RFU MYO3A (11730013_a_at) / Fold change /veh MYO3A (11730013_a_at) / RFU EBF3 (11725865_a_at) / Fold change /veh EBF3 (11725865_a_at) / RFU CAMK2N1 (11719241_x_at) / Fold change /veh CAMK2N1 (11719241_x_at) / RFU C5orf56 (11738088_a_at) / Fold change /veh C5orf56 (11738088_a_at) / RFU OLFML3 (11715873_a_at) / Fold change /veh OLFML3 (11715873_a_at) / RFU LOC100653217 /// NTM (11731650_a_at) / Fold change /veh LOC100653217 /// NTM (11731650_a_at) / RFU MAPK11 (11762145_a_at) / Fold change /veh MAPK11 (11762145_a_at) / RFU FIZ1 (11724087_x_at) / Fold change /veh FIZ1 (11724087_x_at) / RFU OASL (11726364_x_at) / Fold change /veh OASL (11726364_x_at) / RFU SOX15 (11748057_x_at) / Fold change /veh SOX15 (11748057_x_at) / RFU CD79A (11719716_a_at) / Fold change /veh CD79A (11719716_a_at) / RFU HIST1H1D (11736915_at) / Fold change /veh HIST1H1D (11736915_at) / RFU CASKIN2 (11723855_a_at) / Fold change /veh CASKIN2 (11723855_a_at) / RFU LOC730098 (11760151_x_at) / Fold change /veh LOC730098 (11760151_x_at) / RFU OR4N2 (11742367_at) / Fold change /veh OR4N2 (11742367_at) / RFU PRRT2 (11749266_a_at) / Fold change /veh PRRT2 (11749266_a_at) / RFU SNX32 (11753110_a_at) / Fold change /veh SNX32 (11753110_a_at) / RFU CDHR5 (11726645_a_at) / Fold change /veh CDHR5 (11726645_a_at) / RFU RCAN1 (11760418_a_at) / Fold change /veh RCAN1 (11760418_a_at) / RFU FAM167A (11723789_a_at) / Fold change /veh FAM167A (11723789_a_at) / RFU FAM26E (11764081_at) / Fold change /veh FAM26E (11764081_at) / RFU ISYNA1 (11749810_s_at) / Fold change /veh ISYNA1 (11749810_s_at) / RFU ACY1 (11761880_at) / Fold change /veh ACY1 (11761880_at) / RFU 11764098_at / Fold change /veh 11764098_at / RFU SAMD14 (11745864_x_at) / Fold change /veh SAMD14 (11745864_x_at) / RFU NPB (11741838_a_at) / Fold change /veh NPB (11741838_a_at) / RFU TMPRSS6 (11731388_a_at) / Fold change /veh TMPRSS6 (11731388_a_at) / RFU KRTAP10-2 (11738614_at) / Fold change /veh KRTAP10-2 (11738614_at) / RFU ARHGAP8 /// PRR5-ARHGAP8 (11727945_x_at) / Fold change /veh ARHGAP8 /// PRR5-ARHGAP8 (11727945_x_at) / RFU KRTAP5-7 /// NADSYN1 (11734609_at) / Fold change /veh KRTAP5-7 /// NADSYN1 (11734609_at) / RFU RASL12 (11751679_a_at) / Fold change /veh RASL12 (11751679_a_at) / RFU CDKN2B (11736163_a_at) / Fold change /veh CDKN2B (11736163_a_at) / RFU PRF1 (11729649_at) / Fold change /veh PRF1 (11729649_at) / RFU, ZNF638 /// ZNF638-IT1 / Fold change vs veh, ZNF638 /// ZNF638-IT1 / RFU, PANK3 / Fold change vs veh, PANK3 / RFU, SH3YL1 / Fold change vs veh, SH3YL1 / RFU, ZEB2 / Fold change vs veh, ZEB2 / RFU, NRIP1 / Fold change vs veh, NRIP1 / RFU, PTTG1IP / Fold change vs veh, PTTG1IP / RFU, CAPN2 / Fold change vs veh, CAPN2 / RFU, MED14 / Fold change vs veh, MED14 / RFU, SNORA58 / Fold change vs veh, SNORA58 / RFU, C1orf63 / Fold change vs veh, C1orf63 / RFU, LRRFIP1 / Fold change vs veh, LRRFIP1 / RFU, NDUFAF7 / Fold change vs veh, NDUFAF7 / RFU, SLC12A2 / Fold change vs veh, SLC12A2 / RFU, IBTK / Fold change vs veh, IBTK / RFU, ESF1 / Fold change vs veh, ESF1 / Fold change vs veh, TMEM50B / RFU, TAOK1 / Fold change vs veh, TAOK1 / RFU, ACBD3 / Fold change vs veh, ACBD3 / RFU, TMA16 / Fold change vs veh, TMA16 / RFU, RWDD3 / Fold change vs veh, RWDD3 / RFU, BCAT1 / Fold change vs veh, BCAT1 / RFU, EDEM3 / Fold change vs veh, EDEM3 / RFU, TMEM33 / Fold change vs veh, TMEM33 / RFU, WDR75 / Fold change vs veh, WDR75 / RFU, AHCTF1 / Fold change vs veh, AHCTF1 / RFU, TFRC / Fold change vs veh, TFRC / RFU, ZDHHC17 / Fold change vs veh, ZDHHC17 / RFU, NOM1 / Fold change vs veh, NOM1 / RFU, ARL8B / Fold change vs veh, ARL8B / RFU, ZBTB11 / Fold change vs veh, ZBTB11 / RFU, TAMM41 / Fold change vs veh, TAMM41 / RFU, KIAA1704 /// LOC100996395 / Fold change vs veh, KIAA1704 /// LOC100996395 / RFU, ING1 / Fold change vs veh, ING1 / RFU, TRMT61B / Fold change vs veh, TRMT61B / RFU, FUBP3 / Fold change vs veh, FUBP3 / RFU, TP53 / Fold change vs veh, TP53 / RFU, TNKS2 / Fold change vs veh, TNKS2 / RFU, ZFP14 / Fold change vs veh, ZFP14 / RFU, ACTR2 / Fold change vs veh, ACTR2 / RFU, PPP3R1 / Fold change vs veh, PPP3R1 / RFU, PIK3R1 / Fold change vs veh, PIK3R1 / RFU, HNRNPA1 / Fold change vs veh, HNRNPA1 / RFU, RNF170 / Fold change vs veh, RNF170 / RFU, ZNF28 / Fold change vs veh, ZNF28 / RFU, RNGTT / Fold change vs veh, RNGTT / RFU, OGT / Fold change vs veh, OGT / RFU, BRD1 / Fold change vs veh, BRD1 / RFU, MARS / Fold change vs veh, MARS / RFU, ZNF655 / Fold change vs veh, ZNF655 / RFU, FAHD1 / Fold change vs veh, FAHD1 / RFU, BDP1 / Fold change vs veh, BDP1 / RFU, LRRCC1 / Fold change vs veh, LRRCC1 / RFU, ARID1A / Fold change vs veh, ARID1A / RFU, ZNF146 / Fold change vs veh, ZNF146 / RFU, ZNF330 / Fold change vs veh, ZNF330 / RFU, GPN3 / Fold change vs veh, GPN3 / RFU, C9orf123 / Fold change vs veh, C9orf123 / RFU, N4BP2L2 / Fold change vs veh, N4BP2L2 / RFU, ARFIP1 / Fold change vs veh, ARFIP1 / RFU, FAM179B / Fold change vs veh, FAM179B / RFU, BCL10 / Fold change vs veh, BCL10 / RFU, UHRF1BP1L / Fold change vs veh, UHRF1BP1L / RFU, BET1 / Fold change vs veh, BET1 / RFU, CNOT2 / Fold change vs veh, CNOT2 / RFU, ZNF268 / Fold change vs veh, ZNF268 / Fold change vs veh, ZNF507 / RFU, DGCR2 / Fold change vs veh, DGCR2 / RFU, WDSUB1 / Fold change vs veh, WDSUB1 / Fold change vs veh, HSP90B1 /// MIR3652 / RFU, ADSS / Fold change vs veh, ADSS / RFU, GK / Fold change vs veh, GK / RFU, ZNF148 / Fold change vs veh, ZNF148 / RFU, TAF9 / Fold change vs veh, TAF9 / RFU, SLC1A5 / Fold change vs veh, SLC1A5 / RFU, SLMO2 / Fold change vs veh, SLMO2 / RFU, ABCC4 / Fold change vs veh, ABCC4 / RFU, LOC101060439 /// RAP1B / Fold change vs veh, LOC101060439 /// RAP1B / RFU, RFX7 / Fold change vs veh, RFX7 / RFU, GTPBP10 / Fold change vs veh, GTPBP10 / RFU, CNEP1R1 / Fold change vs veh, CNEP1R1 / RFU, BIVM-ERCC5 /// ERCC5 / Fold change vs veh, BIVM-ERCC5 /// ERCC5 / RFU, ILF3 / Fold change vs veh, ILF3 / RFU 11762660_at / Fold change /veh 11762660_at / RFU VCAN (11757783_s_at) / Fold change /veh VCAN (11757783_s_at) / RFU DDX43 (11728927_at) / Fold change /veh DDX43 (11728927_at) / RFU KRT8 (11758188_x_at) / Fold change /veh KRT8 (11758188_x_at) / RFU NKD1 (11759106_at) / Fold change /veh NKD1 (11759106_at) / RFU SRD5A1 (11742802_a_at) / Fold change /veh SRD5A1 (11742802_a_at) / RFU TPSAB1 /// TPSB2 (11721975_s_at) / Fold change /veh TPSAB1 /// TPSB2 (11721975_s_at) / RFU GSTM3 (11746129_a_at) / Fold change /veh GSTM3 (11746129_a_at) / RFU IL23R (11737362_x_at) / Fold change /veh IL23R (11737362_x_at) / RFU TMEM51 (11727254_a_at) / Fold change /veh TMEM51 (11727254_a_at) / RFU PIWIL2 (11732686_x_at) / Fold change /veh PIWIL2 (11732686_x_at) / RFU ORM1 (11744905_x_at) / Fold change /veh ORM1 (11744905_x_at) / RFU CCDC152 (11743942_at) / Fold change /veh CCDC152 (11743942_at) / RFU ECM1 (11717891_a_at) / Fold change /veh ECM1 (11717891_a_at) / RFU IL23R (11748794_a_at) / Fold change /veh IL23R (11748794_a_at) / RFU TNFAIP8L3 (11732012_x_at) / Fold change /veh TNFAIP8L3 (11732012_x_at) / RFU MBOAT4 (11741988_at) / Fold change /veh MBOAT4 (11741988_at) / RFU 11764193_at / Fold change /veh 11764193_at / RFU TMEM53 (11763286_at) / Fold change /veh TMEM53 (11763286_at) / RFU MAGEB2 (11727129_at) / Fold change /veh MAGEB2 (11727129_at) / RFU TMEM200A (11744735_a_at) / Fold change /veh TMEM200A (11744735_a_at) / RFU CCDC152 (11751479_a_at) / Fold change /veh CCDC152 (11751479_a_at) / RFU FAM211A (11726209_a_at) / Fold change /veh FAM211A (11726209_a_at) / RFU RGS16 (11746705_a_at) / Fold change /veh RGS16 (11746705_a_at) / RFU VCAN (11755009_s_at) / Fold change /veh VCAN (11755009_s_at) / RFU RHOB (11743442_s_at) / Fold change /veh RHOB (11743442_s_at) / RFU RGS16 (11720943_a_at) / Fold change /veh RGS16 (11720943_a_at) / RFU RGS16 (11720944_at) / Fold change /veh RGS16 (11720944_at) / RFU, VPS4B / Fold change vs veh, VPS4B / RFU, CREB1 / Fold change vs veh, CREB1 / RFU, DNAJC13 / Fold change vs veh, DNAJC13 / RFU, GNAQ / Fold change vs veh, GNAQ / RFU, CDK5R1 / Fold change vs veh, CDK5R1 / RFU, ZRANB3 / Fold change vs veh, ZRANB3 / RFU, CUL4A / Fold change vs veh, CUL4A / RFU, CCNY / Fold change vs veh, CCNY / RFU, UFL1 / Fold change vs veh, UFL1 / RFU, COG3 / Fold change vs veh, COG3 / RFU, DIAPH2 / Fold change vs veh, DIAPH2 / RFU, SKA2 / Fold change vs veh, SKA2 / RFU, AFF3 / Fold change vs veh, AFF3 / RFU, LMF1 / Fold change vs veh, LMF1 / RFU, IPO11 / Fold change vs veh, IPO11 / RFU, DFFB / Fold change vs veh, DFFB / RFU, FOXP1 / Fold change vs veh, FOXP1 / RFU, CARD8 / Fold change vs veh, CARD8 / RFU, STRN3 / Fold change vs veh, STRN3 / RFU, ADK / Fold change vs veh, ADK / RFU, RASSF2 / Fold change vs veh, RASSF2 / RFU, WIPF1 / Fold change vs veh, WIPF1 / RFU, LARP1B / Fold change vs veh, LARP1B / RFU, RASA1 / Fold change vs veh, RASA1 / RFU, RB1 / Fold change vs veh, RB1 / RFU, PPFIA1 / Fold change vs veh, PPFIA1 / RFU, MAT2A / Fold change vs veh, MAT2A / RFU, CCT5 / Fold change vs veh, CCT5 / RFU, WDR92 / Fold change vs veh, WDR92 / RFU, CUX1 / Fold change vs veh, CUX1 / RFU, TTC7A / Fold change vs veh, TTC7A / RFU, TMEM135 / Fold change vs veh, TMEM135 / RFU, DEPTOR / Fold change vs veh, DEPTOR / RFU, CPM / Fold change vs veh, CPM / RFU, DNAJB6 / Fold change vs veh, DNAJB6 / RFU, CACNA2D3 / Fold change vs veh, CACNA2D3 / RFU, DTX4 / Fold change vs veh, DTX4 / RFU, TFCP2 / Fold change vs veh, TFCP2 / RFU, GMCL1 /// GMCL1P1 / Fold change vs veh, GMCL1 /// GMCL1P1 / RFU, AEBP2 / Fold change vs veh, AEBP2 / RFU, SNHG1 /// SNORD22 /// SNORD25 /// SNORD26 /// SNORD27 /// SNORD28 /// SNORD29 /// SNORD31 / Fold change vs veh, SNHG1 /// SNORD22 /// SNORD25 /// SNORD26 /// SNORD27 /// SNORD28 /// SNORD29 /// SNORD31 / Fold change (Aza/veh), C12orf56 (ProbeSet 11735607_a_at) / Fold change (ACY-1035/veh), C12orf56 (ProbeSet 11735607_a_at) / Fold change (Aza/veh), FGFR1OP (ProbeSet 11751329_s_at) / Fold change (ACY-1035/veh), FGFR1OP (ProbeSet 11751329_s_at) / Fold change (Aza/veh), VPS36 (ProbeSet 11739960_a_at) / Fold change (ACY-1035/veh), VPS36 (ProbeSet 11739960_a_at) / RFU SYPL1 (11715823_x_at) / Fold change /veh SYPL1 (11715823_x_at) / RFU IGFBP7 (11715501_s_at) / Fold change /veh IGFBP7 (11715501_s_at) / RFU REEP3 (11722064_at) / Fold change /veh REEP3 (11722064_at) / RFU IGLL1 (11728026_x_at) / Fold change /veh IGLL1 (11728026_x_at): dose or concentration left out as unconfirmed
Conditions: MV-4-11 cells, 48 hours

## Nc1ccc(-c2cccs2)cc1NC(=O)c1ccc2c(c1)cc(C1CC1)n2CCN1CCOCC1 [ACY-1035]
  RFU LOC730098 (11760151_x_at): 35.48 RFU
